Data taken from patent EP4559919A1, “TRICYCLIC-CONTAINING MACROCYCLIC COMPOUND AND USE THEREOF” (Medshine Discovery Inc., priority 2022, dated 2024).

Key:
TRKB [1] = molecular target: T1, TRKB (Homo sapiens, UniProt Q16620); test: In vitro kinase inhibitory activity assay, Experimental method 1 (ADP-Glo); assay type: biochemical; settings: read-out: Kinase half maximal inhibitory concentration IC50 TRKB
T1 construct: purchased Carna
Experimental: (§1) The kinase inhibitory activity assays of the compounds against ALK, ALK^L1196M, ALK^G1202R, ALK^G1202R/L1196M, ROS1, and TRKB were conducted at Wuhan Heyan Biotechnology Co., Ltd. or Hefei PreceDo Biotechnology Co., Ltd.
(§2) Experimental materials: ALK Active, ALK(L1196M) Active, ALK(G1202R) Active, and ALK(G1202R/L1196M) Active were purchased from Carna; SRC Substrate was purchased from SignalChem; IGF1R tide was purchased from SignalChem; ADP-Glo Kinase Assay was purchased from Promega; Kinase assay buffer III was purchased from SignalChem; and Nivo multimode plate reader (PerkinElmer).
(§3) Each concentration of the compounds was further diluted 20-fold using 1X kinase buffer to prepare compound working solutions containing 5% DMSO. 1 µL of each concentration gradient working solution was added to a microplate, with duplicate wells set for each concentration. 2 µL of ALK enzyme (15 ng per well) and 2 µL of a mixture of substrate and ATP (25 µM ATP, 0.5 µg/µL SRC Substrate) were added to the microplate. […] The reaction system was placed at 25°C for 1 hour. After the reaction, 5 µL of ADP-Glo reagent was added to each well and reacted at 25°C for another 40 minutes. After the reaction, 10 µL of kinase detection reagent was added to each well and reacted at 25°C for 30 minutes. Chemiluminescence was then measured using the PerkinElmer Nivo multimode plate reader with an integration time of 0.5 seconds.
TRKB kinase inhibition assay method: The preparation method for the working solution of the test compound was the same as for the ALK kinase. 2 µL of TRKB (0.5 ng per well) and 4 µL of a mixture of substrate and ATP (5 µM ATP, 0.5 µM SRC Substrate) were added to the microplate. […] The subsequent steps were the same as for ALK kinase.
(§4) The IC50 value could then be derived by performing a curve fit using a four-parameter logistic model (obtained using the "log(inhibitor) vs. response -- Variable slope" mode in GraphPad Prism).

ALK(G1202R/L1196M) [2] = molecular target: T2, ALK(G1202R/L1196M) (Homo sapiens, UniProt Q9UM73, G1202R/L1196M); test: as above; assay type: biochemical; settings: final ATP 50 µM, read-out: Kinase half maximal inhibitory concentration IC50 ALK^G1202R/L1196M
T2 construct: purchased Carna
T2 sequence (Q9UM73 19-1620 L1196M/G1202R): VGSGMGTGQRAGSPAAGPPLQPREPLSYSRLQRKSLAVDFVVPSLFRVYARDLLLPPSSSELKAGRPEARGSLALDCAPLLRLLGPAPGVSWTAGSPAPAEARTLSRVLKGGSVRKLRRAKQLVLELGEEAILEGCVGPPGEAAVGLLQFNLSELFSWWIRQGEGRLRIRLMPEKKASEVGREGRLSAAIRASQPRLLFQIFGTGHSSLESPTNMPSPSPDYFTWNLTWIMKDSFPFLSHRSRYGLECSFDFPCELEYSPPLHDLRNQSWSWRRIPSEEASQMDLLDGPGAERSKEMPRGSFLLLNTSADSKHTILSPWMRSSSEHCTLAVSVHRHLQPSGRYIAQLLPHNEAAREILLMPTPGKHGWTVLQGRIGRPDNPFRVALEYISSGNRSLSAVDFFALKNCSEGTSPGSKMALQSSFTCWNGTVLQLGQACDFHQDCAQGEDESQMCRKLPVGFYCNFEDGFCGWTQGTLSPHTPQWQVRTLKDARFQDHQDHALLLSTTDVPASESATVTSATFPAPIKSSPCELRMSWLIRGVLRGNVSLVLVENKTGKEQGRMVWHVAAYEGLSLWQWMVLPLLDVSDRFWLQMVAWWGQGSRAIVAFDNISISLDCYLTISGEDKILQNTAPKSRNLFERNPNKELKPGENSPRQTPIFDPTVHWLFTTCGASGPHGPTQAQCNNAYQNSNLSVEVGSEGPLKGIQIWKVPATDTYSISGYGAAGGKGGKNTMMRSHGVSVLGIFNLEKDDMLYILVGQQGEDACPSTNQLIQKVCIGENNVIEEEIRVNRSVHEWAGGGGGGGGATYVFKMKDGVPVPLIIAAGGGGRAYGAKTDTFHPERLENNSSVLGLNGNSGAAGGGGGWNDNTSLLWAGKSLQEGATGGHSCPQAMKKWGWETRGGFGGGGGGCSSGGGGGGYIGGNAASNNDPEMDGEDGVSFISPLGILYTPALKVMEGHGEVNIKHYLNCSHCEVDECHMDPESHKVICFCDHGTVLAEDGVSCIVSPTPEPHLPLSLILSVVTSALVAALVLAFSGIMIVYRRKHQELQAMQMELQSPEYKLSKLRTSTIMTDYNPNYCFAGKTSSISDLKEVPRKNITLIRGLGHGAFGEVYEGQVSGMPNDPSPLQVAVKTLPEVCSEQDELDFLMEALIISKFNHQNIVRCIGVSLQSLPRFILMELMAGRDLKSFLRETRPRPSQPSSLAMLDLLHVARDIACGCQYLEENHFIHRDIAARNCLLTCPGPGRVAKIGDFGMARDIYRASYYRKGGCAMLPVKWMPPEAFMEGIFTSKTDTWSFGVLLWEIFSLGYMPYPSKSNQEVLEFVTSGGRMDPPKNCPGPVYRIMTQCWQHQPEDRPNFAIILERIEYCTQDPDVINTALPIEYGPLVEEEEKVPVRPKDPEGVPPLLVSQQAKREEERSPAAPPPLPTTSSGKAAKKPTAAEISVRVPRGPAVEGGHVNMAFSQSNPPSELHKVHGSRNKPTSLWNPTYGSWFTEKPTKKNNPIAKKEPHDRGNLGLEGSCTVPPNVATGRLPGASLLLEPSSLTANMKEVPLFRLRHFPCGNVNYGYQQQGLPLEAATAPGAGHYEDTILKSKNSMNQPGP
Experimental: as §1, §2, §3
ALK (G1202R/L1196M) kinase inhibition assay method: The preparation method for the working solution of the test compound was the same as for the ALK kinase. […] The subsequent steps were the same as for ALK kinase.
as §4

ALK = molecular target: T3, ALK (Homo sapiens, UniProt Q9UM73); test: as above; assay type: biochemical; settings: final ATP 10 µM, read-out: Kinase half maximal inhibitory concentration IC50 ALK
T3 construct: purchased Carna
T3 sequence (Q9UM73 19-1620): as the sequence (Q9UM73 19-1620 L1196M/G1202R) above, with M1178L, R1184G counted along it
Experimental: as §1, §2
as §3, with “After the reaction, 10 µL of kinase detection reagent was added to each well and reacted at 25°C for 30 minutes.” left out, “seconds. […]” for “seconds.”

ALK(G1202R) = molecular target: T4, ALK(G1202R) (Homo sapiens, UniProt Q9UM73, G1202R); test: as above; assay type: biochemical; settings: final ATP 50 µM, read-out: Kinase half maximal inhibitory concentration IC50 ALK^G1202R
T4 construct: purchased Carna
T4 sequence (Q9UM73 19-1620 G1202R): as the sequence (Q9UM73 19-1620 L1196M/G1202R) above, with M1178L counted along it
Experimental: as §1, §2, §3
ALK (G1202R) kinase inhibition assay method: The preparation method for the working solution of the test compound was the same as for the ALK kinase. […] The subsequent steps were the same as for ALK kinase.
as §4

ROS1 = ROS1 (Homo sapiens, UniProt P08922); test: as above; assay type: biochemical; settings: read-out: Kinase half maximal inhibitory concentration IC50 ROS1
Chain of ROS1 (P08922 28-2347): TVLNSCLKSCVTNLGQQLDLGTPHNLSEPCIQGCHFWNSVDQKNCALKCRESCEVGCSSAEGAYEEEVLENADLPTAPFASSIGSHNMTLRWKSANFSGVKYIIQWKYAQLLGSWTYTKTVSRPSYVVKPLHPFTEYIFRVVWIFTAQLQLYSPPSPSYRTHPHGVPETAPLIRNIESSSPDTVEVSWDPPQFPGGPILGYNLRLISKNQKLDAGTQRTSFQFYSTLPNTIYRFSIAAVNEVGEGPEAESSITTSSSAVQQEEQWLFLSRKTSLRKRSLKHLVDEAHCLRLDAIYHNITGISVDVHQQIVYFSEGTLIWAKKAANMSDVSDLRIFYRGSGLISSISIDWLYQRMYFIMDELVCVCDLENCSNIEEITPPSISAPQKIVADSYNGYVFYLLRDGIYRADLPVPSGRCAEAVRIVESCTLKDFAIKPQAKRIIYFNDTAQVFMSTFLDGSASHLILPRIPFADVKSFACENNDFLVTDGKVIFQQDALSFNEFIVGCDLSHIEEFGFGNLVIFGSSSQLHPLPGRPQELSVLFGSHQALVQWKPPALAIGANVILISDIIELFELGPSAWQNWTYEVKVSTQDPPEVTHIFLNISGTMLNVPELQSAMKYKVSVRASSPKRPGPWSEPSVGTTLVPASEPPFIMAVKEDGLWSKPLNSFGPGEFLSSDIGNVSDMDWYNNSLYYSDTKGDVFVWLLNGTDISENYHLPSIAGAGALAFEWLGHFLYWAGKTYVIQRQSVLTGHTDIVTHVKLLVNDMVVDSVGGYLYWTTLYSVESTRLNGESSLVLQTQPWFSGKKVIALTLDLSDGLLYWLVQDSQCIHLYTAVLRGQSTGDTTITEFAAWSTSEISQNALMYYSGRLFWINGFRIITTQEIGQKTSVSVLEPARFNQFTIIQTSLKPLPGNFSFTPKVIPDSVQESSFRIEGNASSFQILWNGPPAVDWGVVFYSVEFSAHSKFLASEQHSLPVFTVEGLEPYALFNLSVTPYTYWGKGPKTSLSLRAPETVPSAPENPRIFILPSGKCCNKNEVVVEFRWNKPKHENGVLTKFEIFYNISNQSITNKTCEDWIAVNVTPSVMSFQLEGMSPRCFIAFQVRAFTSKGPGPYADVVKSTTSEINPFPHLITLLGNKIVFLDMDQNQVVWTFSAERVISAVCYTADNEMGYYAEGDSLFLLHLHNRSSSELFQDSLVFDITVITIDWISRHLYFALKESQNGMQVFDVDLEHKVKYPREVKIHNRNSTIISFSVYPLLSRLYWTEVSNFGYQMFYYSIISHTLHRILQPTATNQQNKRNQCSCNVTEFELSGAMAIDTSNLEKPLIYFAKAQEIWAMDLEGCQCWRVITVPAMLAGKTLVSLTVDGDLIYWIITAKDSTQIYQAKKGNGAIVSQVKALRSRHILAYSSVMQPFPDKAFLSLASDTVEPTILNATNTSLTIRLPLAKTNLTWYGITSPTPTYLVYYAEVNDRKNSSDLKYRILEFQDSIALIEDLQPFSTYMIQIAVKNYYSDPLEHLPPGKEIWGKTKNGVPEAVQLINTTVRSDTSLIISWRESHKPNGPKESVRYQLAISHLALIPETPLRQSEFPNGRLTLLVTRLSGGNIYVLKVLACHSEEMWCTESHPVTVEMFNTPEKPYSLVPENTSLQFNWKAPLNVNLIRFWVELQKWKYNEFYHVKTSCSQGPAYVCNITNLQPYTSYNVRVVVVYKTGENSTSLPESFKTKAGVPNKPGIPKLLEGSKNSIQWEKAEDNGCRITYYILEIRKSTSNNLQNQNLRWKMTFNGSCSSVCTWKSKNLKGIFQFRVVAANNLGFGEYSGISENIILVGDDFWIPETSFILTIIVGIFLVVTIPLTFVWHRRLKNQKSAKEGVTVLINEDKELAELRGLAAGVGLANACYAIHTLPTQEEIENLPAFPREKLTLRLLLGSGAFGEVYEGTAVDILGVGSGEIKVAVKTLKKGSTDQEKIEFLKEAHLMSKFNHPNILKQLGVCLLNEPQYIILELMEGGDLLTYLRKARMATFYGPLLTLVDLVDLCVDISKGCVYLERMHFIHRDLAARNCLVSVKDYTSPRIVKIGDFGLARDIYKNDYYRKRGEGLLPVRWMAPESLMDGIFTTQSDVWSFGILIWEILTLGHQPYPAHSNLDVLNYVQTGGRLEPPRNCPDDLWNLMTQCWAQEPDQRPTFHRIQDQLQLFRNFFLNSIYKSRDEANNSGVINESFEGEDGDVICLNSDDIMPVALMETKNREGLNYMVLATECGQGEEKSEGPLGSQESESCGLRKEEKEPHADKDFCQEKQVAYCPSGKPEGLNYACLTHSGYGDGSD
Experimental: as §1, §2
as §3, with “After the reaction, 10 µL of kinase detection reagent was added to each well and reacted at 25°C for 30 minutes.” left out, “seconds. […]” for “seconds.”

ALK(L1196M) = molecular target: T5, ALK(L1196M) (Homo sapiens, UniProt Q9UM73, L1196M); test: as above; assay type: biochemical; settings: final ATP 50 µM, read-out: Kinase half maximal inhibitory concentration IC50 ALK^L1196M
T5 construct: purchased Carna
T5 sequence (Q9UM73 19-1620 L1196M): as the sequence (Q9UM73 19-1620 L1196M/G1202R) above, with R1184G counted along it
Experimental: as §1, §2
as §3, with “After the reaction, 10 µL of kinase detection reagent was added to each well and reacted at 25°C for 30 minutes.” left out, “seconds. […]” for “seconds.”

Ba/F3-TEL-TRKB = test: Anti-proliferative activity test on Ba/F3 cell lines (CellTiter-Glo); assay type: cell-based; settings: Mus musculus, BaF3; 72 hours; read-out: Half maximal inhibitory concentration IC50 for cells Ba/F3-TEL-TRKB
Experimental: (§5) • (1) Cell culture: The cell lines were cultured in an incubator at 37°C with 5% CO2. Regular passaging was performed, and cells in the logarithmic growth phase were selected for plating; • (2) Preparation of compound storage plate: The test compounds were prepared into a 10 mM solution with DMSO (Stock Con.); The compounds were then prepared into a 1 mM solution with DMSO (Work Con.); 1 µL of the stock solution was mixed with 9 µL of DMSO to prepare a 10 µL work solution. • (3) Preparation of 1000× compound storage plate (tube): The compounds were 3-fold serially diluted from […] to the lowest concentration, for a total of 8 concentrations; • (4) Preparation of 20× compound working solution: 98 µL of cell culture medium was added to a flat-bottomed 96-well transparent drug plate. From the 1000× compound storage plate, 2 µL of the compound was pipetted into the cell culture medium in the 96-well transparent drug plate. In the solvent control, 2 µL of DMSO was added. After the compound or DMSO was added, the mixture was homogenized using a pipette. • (5) Cells were stained with trypan blue and viable cells were counted to ensure a cell viability of 90% or more. The cell concentration was adjusted to an appropriate concentration; • (6) 95 µL of cell suspension (2000 cells/well) was added to each well of the compound assay cell plate, and cell-free culture medium containing 0.1% DMSO was added to the Min control wells; • (7) Administration in the compound assay cell plate: 5 µL of 20× compound working solution was added to the cell culture plate, 5 µL of DMSO-cell culture medium mixture was added to the Max control wells, and the final concentration of DMSO was 0.1%; • (8) The culture plate was then incubated in an incubator at 37°C with 5% CO2 for 72 hours; • (9) The following operations were conducted in accordance with the instructions of the Promega CellTiter-Glo Luminescent Cell Viability Assay Kit (Promega-G7573): CellTiter-Glo buffer was thawed and brought to room temperature; CellTiter-Glo substrate was brought to room temperature; CellTiter-Glo buffer was added to a bottle of CellTiter-Glo substrate to dissolve the substrate, thereby preparing CellTiter-Glo working solution; The mixture was slowly vortexed and shaken to be fully dissolved; The cell culture plate was removed and allowed to equilibrate to room temperature for 10 minutes; 50 µL (equal to half the volume of cell culture medium in each well) of CellTiter-Glo working solution was added to each well; The culture plate was shaken on an orbital shaker for 2 minutes to induce cell lysis; The plate was then left at room temperature for 10 minutes to stabilize the luminescent signal; The luminescent signal was detected using a SpectraMax Paradigm plate reader; Cell viability assay was conducted using CellTiter-Glo luminescence method.
(§6) Data analysis: The corresponding […] value (RLU) for each well was obtained from SpectraMax Paradigm readings. […] The inhibition rates corresponding to compounds at different concentrations were calculated in Excel, and the inhibition rate curves were plotted using GraphPad Prism software to calculate relevant parameters, including the maximum and minimum inhibition rates of the cells and the IC50 value.

[3] = tested on: Ba/F3-EML4-ALK-G1202R/L1196M; test: as above; assay type: cell-based
Experimental: as §5, §6

TRKB [4] = molecular target: T1, TRKB; test: In vitro kinase inhibitory activity assay, Experimental method 2 (ADP-Glo); assay type: biochemical; settings: Experimental method 2; ATP 5.0 µM, substrate PolyE4Y1; read-out: Kinase half maximal inhibitory concentration IC50 TRKB
Experimental: as §1
(§7) Experimental materials: ALK (G1202R/L1196M) Active and TRKB were purchased from Carna; IGF1 was purchased from GenScript; PolyE4Y1 was purchased from SIGMA; ADP-Glo™ Reagent was purchased from Promega; ATP was purchased from Promega; Kinase Detection Reagent was purchased from Promega; microplate reader ( PerkinElmer).
TRKB reaction concentration 4.47 nM, ATP concentration 5.0 µM, substrate PolyE4Y1 concentration 0.2 µg/µL. TRKB kinase buffer was 40 mM Tris-HCl (pH 7.5) + 20 mM magnesium chloride + 2.5 mM manganese chloride + 0.1mg/mL BSA+ 50 µM DTT.
(§8) ALK(G1202R/L1196M) and TRKB detection method: 2 µL of kinase and 1 µL of compound were added to a 384-well plate; 2 µL of substrate/ATP mixture was added and incubated at room temperature in the dark for 60 minutes; 5 µL of ADP-Glo™ reagent was added and incubated at room temperature for 40 minutes; 10 µL of kinase detection reagent was added and incubated at room temperature for 30 minutes; the plate was read on a microplate reader, and luminescence was recorded (integration time set to 0.5 seconds).
as §4

[5] = HMS CLint (liver) test, hepatocyte metabolic stability; assay type: in vitro ADME; settings: 0.5 × 10^6 cells/mL, up to 90 minutes
Experimental: The metabolic stability of the compounds of the present disclosure was tested in human and mouse hepatocytes.
• (1) Test compound (10 mM); Control: 7-ethoxycoumarin (30 mM), 7-hydroxycoumarin (reference substance, 30 mM); • Mouse hepatocytes with cell viability of 73.8%, supplier Cat No.: BioreclamationIVTM005052; • Human hepatocytes with cell viability of 94.6%, supplier Cat No.: Bioreclamation IVTX008001. • (2) Buffer system: Thawing medium: Williams' medium E containing 5% fetal bovine serum, 30% Percoll solution, and other auxiliary materials.
Incubation medium: Williams' medium E (without phenol red) containing 2 mM L-glutamine and 25 mM 4-(2-hydroxyethyl)-1-piperazineethanesulfonic acid.
Stop solution: acetonitrile containing 200 ng/mL tolbutamide and labetalol as internal standard. […]
The residual rates of the test compound and the control compound were determined using the following formula: Residual rate (%) = (Peak area ratio of compound to internal standard at any time point)/(Peak area ratio of compound to internal standard at 0 minutes) × 100% [formula]
The elimination rate constant (k) of the test compound and the control compound in hepatocytes was calculated by plotting the logarithm of the residual rate against time. […]

ALK(G1202R/L1196M) [6] = molecular target: T2, ALK(G1202R/L1196M); test: In vitro kinase inhibitory activity assay, Experimental method 2 (ADP-Glo); assay type: biochemical; settings: Experimental method 2; ATP 5.0 µM, substrate IGF1; read-out: Kinase half maximal inhibitory concentration IC50 ALK^G1202R/L1196M
Experimental: as §1, §7
Reaction system: ALK(G1202R/L1196M) reaction concentration 8.63 nM, ATP concentration 5.0 µM, substrate IGF1 concentration 0.2 µg/µL. ALK(G1202R/L1196M) kinase buffer was 40 mM Tris-HCl (pH 7.5) + 20 mM magnesium chloride + 0.1 mg/mL BSA + 50 µM DTT.
as §8, §4

T1 sequence (Q16620 32-822): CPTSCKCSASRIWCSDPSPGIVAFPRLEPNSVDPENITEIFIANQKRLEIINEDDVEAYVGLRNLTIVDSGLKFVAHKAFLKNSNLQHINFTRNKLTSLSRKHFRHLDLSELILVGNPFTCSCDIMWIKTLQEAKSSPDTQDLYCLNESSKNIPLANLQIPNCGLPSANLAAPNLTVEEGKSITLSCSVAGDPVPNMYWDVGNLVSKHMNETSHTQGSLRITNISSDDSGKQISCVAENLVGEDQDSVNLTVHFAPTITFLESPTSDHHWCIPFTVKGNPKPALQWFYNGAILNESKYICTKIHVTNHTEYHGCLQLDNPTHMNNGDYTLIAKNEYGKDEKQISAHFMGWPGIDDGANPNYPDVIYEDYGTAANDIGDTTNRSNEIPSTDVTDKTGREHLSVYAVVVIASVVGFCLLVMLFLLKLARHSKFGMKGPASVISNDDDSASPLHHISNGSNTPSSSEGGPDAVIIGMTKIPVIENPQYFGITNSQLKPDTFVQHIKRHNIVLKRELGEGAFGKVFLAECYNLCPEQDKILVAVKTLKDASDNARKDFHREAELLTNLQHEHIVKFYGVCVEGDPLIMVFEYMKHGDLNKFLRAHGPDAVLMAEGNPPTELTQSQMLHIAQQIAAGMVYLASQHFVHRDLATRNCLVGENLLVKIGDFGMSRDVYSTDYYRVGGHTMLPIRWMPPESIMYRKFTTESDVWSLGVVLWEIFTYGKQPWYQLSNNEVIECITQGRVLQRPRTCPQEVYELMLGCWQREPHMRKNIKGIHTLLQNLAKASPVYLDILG

| SMILES | IC50 (TRKB [1]) | IC50 (ALK(G1202R/L1196M) [2]) | IC50 (ALK) | IC50 (ALK(G1202R)) | IC50 (ROS1) | IC50 (ALK(L1196M)) | IC50 (Ba/F3-TEL-TRKB) | IC50 ([3]; Ba/F3 EML4-ALK-G1202R-L1196M, 72 hours, read-out: Half maximal inhibitory concentration IC50 for cells Ba/F3-EML4-ALK-G1202R/L1196 M) | selectivity: inhibition against ALK-mutant cells versus TRKB phenotypic cells ([3]; stronger inhibition of ALK-mutant cells, relatively weaker of TRKB phenotypic cells) | IC50 (TRKB [4]) | CLint scaled ([5]; Human hepatocytes) | CLint scaled ([5]; Mouse hepatocytes) | IC50 (ALK(G1202R/L1196M) [6]) |
| --- | --- | --- | --- | --- | --- | --- | --- | --- | --- | --- | --- | --- | --- |
| CON=C1NC(C)(C)COc2ccc(F)cc2CN2c3nc4c1cnn4cc3OC[C@H]2C(F)F [Compound 001] | 2.2 nM | 12.4 nM | 22.2 nM | 16.9 nM | 17.3 nM | 12.8 nM |  |  |  |  |  |  |  |
| CC#Cc1nn2cc3c4nc2c1C(=O)NC(C)(C)COc1ccc(F)cc1CN4[C@H](C(F)F)CO3 [Compound 018] |  |  |  |  |  |  | 6.9 nM | 1.1 nM | excellent selectivity | 4.9 nM | < 17.8 mL/min/kg | 291 mL/min/kg | 0.7 nM |
